According to PubChem BioAssay (NCI):
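Step 1: Grow cells in 96-well plates. Step 2: Expose to compound for 48 hours at 5 concentrations. Step 3: Interpolate endpoints linearly; if unreached, use highest concentration. GI50 marks 50% less growth. TGI: total growth inhibition.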

Assays:
Experiment in all cases: growth of human tumour cells (NCI), 48 h
786-0 renal = system: 786-0 renal
A498 renal = system: A498 renal
DU-145 prostate = system: DU-145 prostate
HT29 colon = system: HT29 colon
MDA-MB-435 = system: MDA-MB-435
NCI-H23 lung = system: NCI-H23 lung
NCI-H460 lung = system: NCI-H460 lung
OVCAR-4 ovarian = system: OVCAR-4 ovarian
SK-OV-3 ovarian = system: SK-OV-3 ovarian
TK-10 renal = system: TK-10 renal

| Compound | TGI (786-0 renal) | TGI (A498 renal) | TGI (DU-145 prostate) | TGI (HT29 colon) | TGI (MDA-MB-435) | TGI (NCI-H23 lung) | TGI (NCI-H460 lung) | TGI (OVCAR-4 ovarian) | TGI (SK-OV-3 ovarian) | TGI (TK-10 renal) | GI50 (786-0 renal) | GI50 (A498 renal) | GI50 (DU-145 prostate) | GI50 (HT29 colon) | GI50 (MDA-MB-435) | GI50 (NCI-H23 lung) | GI50 (NCI-H460 lung) | GI50 (OVCAR-4 ovarian) | GI50 (SK-OV-3 ovarian) | GI50 (TK-10 renal) |
| --- | --- | --- | --- | --- | --- | --- | --- | --- | --- | --- | --- | --- | --- | --- | --- | --- | --- | --- | --- | --- |
| COc1ccccc1NC(=O)CC(=O)n1nc(C)c(N=Nc2ccccc2Cl)c1C | > 100 µM | > 100 µM | > 100 µM | > 100 µM | > 100 µM | > 44.7 µM | > 100 µM | > 100 µM | 98.6 µM | > 100 µM | – | – | – | – | – | – | – | – | – | – |
| CN(/N=C/c1ccccc1O)c1ccc2ccccc2n1 | 31.5 µM | 38.8 µM | 41.3 µM | 90.1 µM | > 100 µM | 58.4 µM | 55 µM | 67.7 µM | 29.8 µM | 44 µM | – | – | – | – | – | – | – | – | – | – |
| Cc1ccc2[nH]c(O)c(N=Nc3ccccc3[N+](=O)[O-])c2c1 | 3.6 µM | 34.6 µM | > 100 µM | > 100 µM | > 100 µM | 77.1 µM | > 100 µM | 6.18 µM | 14.2 µM | 64.5 µM | – | – | – | – | – | – | – | – | – | – |
| O=C(O)CN1C(=O)CN=C(c2ccccn2)c2cc(Cl)ccc21 | > 100 µM | > 100 µM | > 100 µM | > 100 µM | > 100 µM | – | > 100 µM | > 100 µM | > 100 µM | > 100 µM | – | – | – | – | – | – | – | – | – | – |
| C#Cc1cccc(NC(=O)c2cccc(NC(=O)CCl)c2)c1 | 28.1 µM | > 82.5 µM | > 82.5 µM | 33.4 µM | > 82.5 µM | 29.9 µM | 20 µM | 33.9 µM | > 82.5 µM | > 82.5 µM | 14.2 µM | 6.14 µM | 29.2 µM | 8.18 µM | 32.3 µM | 13.4 µM | 5.49 µM | 15.8 µM | 56.4 µM | 25.9 µM |
| O=C(Nc1cccc(C(F)(F)F)c1)c1ccc(NC2=C(Cl)C(=O)N(Cc3ccccc3)C2=O)cc1 | 24.5 µM | 45.7 µM | 12.3 µM | 52 µM | 20.5 µM | 13.4 µM | 57 µM | 54.7 µM | 82.6 µM | 37.4 µM | 12.1 µM | 24.4 µM | 3.38 µM | 13.6 µM | 6.92 µM | 4.13 µM | 5.91 µM | 25.8 µM | 25.7 µM | 17.9 µM |
| O=C(c1ccccc1)C1OC1C(=O)c1ccccc1 (stereo unspecified) | 84.9 µM | > 100 µM | 4.28 µM | 13.2 µM | > 100 µM | 10.8 µM | > 100 µM | 26.3 µM | > 100 µM | 8.37 µM | 4.35 µM | 19.7 µM | 1.32 µM | 3.19 µM | 2.86 µM | 2.33 µM | 3.93 µM | 3.84 µM | 7.98 µM | 1.86 µM |
| COc1ccc(-c2cc(-c3ccc(OC)cc3)nc(NCCCNc3ccnc4cc(Cl)ccc34)n2)cc1 | 2.99 µM | 18.3 µM | 3.38 µM | 3.06 µM | 3.18 µM | 3.72 µM | 3.32 µM | 3.35 µM | 3.14 µM | 3.56 µM | 1.62 µM | 5.32 µM | 1.88 µM | 1.56 µM | 1.73 µM | 1.8 µM | 1.77 µM | 1.65 µM | 1.71 µM | 1.97 µM |
| CCn1c(SCC(=O)Nc2cc(C(F)(F)F)ccc2Cl)nc2ccccc2c1=O | > 100 µM | 59.2 µM | > 100 µM | > 100 µM | > 100 µM | > 100 µM | > 100 µM | > 100 µM | 30.9 µM | 66.2 µM | 48.6 µM | 16.4 µM | 32.3 µM | > 100 µM | > 100 µM | 46.9 µM | 30.5 µM | 22.5 µM | 14.6 µM | 23.7 µM |
| FC(F)(F)c1nc(SCc2ccc(Cl)cc2)n[nH]1 | > 100 µM | > 100 µM | > 100 µM | > 100 µM | > 100 µM | > 100 µM | > 100 µM | > 100 µM | > 100 µM | > 100 µM | – | – | – | – | – | – | – | – | – | – |
| COc1ccc(CNCCCN2C(=O)c3ccc4c5c(ccc(c35)C2=O)C(=O)N(CCCNCc2ccc(OC)c(OC)c2OC)C4=O)c(OC)c1OC | 1.02 µM | 1.25 µM | 0.185 µM | 0.244 µM | 0.177 µM | 0.201 µM | 0.336 µM | 0.127 µM | 0.848 µM | 0.269 µM | 0.333 µM | 0.61 µM | 0.093 µM | 0.0522 µM | 0.0925 µM | 0.0936 µM | 0.121 µM | 0.0599 µM | 0.264 µM | 0.0981 µM |
| CCCS(=O)(=O)Nc1cccc(Nc2ncnc3cc(NC(=O)CCl)ccc23)c1Cl | 3.88 µM | 11 µM | 6.31 µM | 4.74 µM | 5.76 µM | 5.25 µM | 8.06 µM | 7.76 µM | 8.16 µM | 7 µM | 0.935 µM | 5.47 µM | 3.09 µM | 1.1 µM | 1.47 µM | 1.26 µM | 3.67 µM | 2.95 µM | 4 µM | 3.21 µM |
| COc1c(C)c(OC)c(C(=O)CC(C)C)c(OC)c1C | > 100 µM | > 100 µM | > 100 µM | > 100 µM | > 100 µM | > 100 µM | – | > 100 µM | > 100 µM | > 100 µM | – | – | – | – | – | – | – | – | – | – |
| COc1ccc(C2CC(c3ccc(OC)cc3O)=NN2c2ccc(S(N)(=O)=O)cc2)cc1 (stereo unspecified) | > 100 µM | 80.2 µM | > 100 µM | > 100 µM | > 100 µM | > 100 µM | 39.2 µM | > 100 µM | > 100 µM | > 100 µM | 18.4 µM | 13.1 µM | 44.5 µM | 11.1 µM | 6.56 µM | 20.5 µM | 6.74 µM | 30.8 µM | 26.1 µM | 7.18 µM |
| CCN(CCO)CCCC(C)Nc1ccnc2cc(Cl)ccc12 (stereo unspecified) | > 100 µM | > 100 µM | > 100 µM | > 100 µM | > 100 µM | – | > 100 µM | > 100 µM | > 100 µM | > 100 µM | > 100 µM | > 100 µM | > 100 µM | > 100 µM | > 100 µM | – | > 100 µM | > 100 µM | > 100 µM | > 100 µM |
